# Calls of active or inactive are those of the source.
# Experiments:
# [1] = molecular target: Neurotensin receptor type 1 (Homo sapiens, UniProt P30989); format: functional;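 note: Image-based confirmatory dose-response assay measuring agonist activity at NTR1; NTR1-expressing U2OS osteosarcoma cells imaged for beta-arrestin GFP spot formation; agonist potency where compounds increase beta-arrestin recruitment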
# Hexokinase HKDC1 = Hexokinase HKDC1 (Homo sapiens, UniProt Q2TB90); test: inhibition of HKDC1 glucose phosphorylation – biochemical, W721R variant, dose response (AID 504729); format: functional
# [2] = molecular target: T1, Replicative DNA helicase DnaB (Mycobacterium tuberculosis, UniProt P9WMR3); test: DnaB intein splicing inhibitors, dose response, biochemical, cell-free fluorescence (AID 449749); format: functional
# T1 sequence (P9WMR3 whole entry): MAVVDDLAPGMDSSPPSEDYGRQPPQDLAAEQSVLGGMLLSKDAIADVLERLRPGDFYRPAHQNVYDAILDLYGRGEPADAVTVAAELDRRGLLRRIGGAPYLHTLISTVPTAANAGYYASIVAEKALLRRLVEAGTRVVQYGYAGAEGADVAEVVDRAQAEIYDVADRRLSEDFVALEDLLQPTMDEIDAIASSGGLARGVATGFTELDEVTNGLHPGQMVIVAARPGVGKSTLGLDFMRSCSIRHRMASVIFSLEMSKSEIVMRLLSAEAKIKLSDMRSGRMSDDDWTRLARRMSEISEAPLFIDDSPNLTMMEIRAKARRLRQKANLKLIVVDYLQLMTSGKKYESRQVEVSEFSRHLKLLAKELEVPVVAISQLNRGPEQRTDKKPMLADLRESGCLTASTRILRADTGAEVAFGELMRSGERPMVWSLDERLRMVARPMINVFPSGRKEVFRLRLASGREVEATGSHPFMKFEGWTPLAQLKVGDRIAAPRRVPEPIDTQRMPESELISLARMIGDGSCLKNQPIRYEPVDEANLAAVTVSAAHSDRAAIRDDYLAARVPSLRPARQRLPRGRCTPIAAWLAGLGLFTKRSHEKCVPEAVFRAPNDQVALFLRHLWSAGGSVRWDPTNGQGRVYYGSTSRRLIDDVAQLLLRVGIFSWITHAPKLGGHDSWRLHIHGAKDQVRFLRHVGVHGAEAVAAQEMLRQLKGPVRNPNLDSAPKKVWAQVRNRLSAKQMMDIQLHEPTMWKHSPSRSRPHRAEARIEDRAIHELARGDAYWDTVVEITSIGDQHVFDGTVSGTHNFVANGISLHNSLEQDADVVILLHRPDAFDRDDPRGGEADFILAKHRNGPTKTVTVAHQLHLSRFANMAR
# Protein RecA = molecular target: T2, Protein RecA (Mycobacterium tuberculosis, UniProt P9WHJ3); test: Fluorescence Cell-Free Homogeneous Dose Retest to Identify Inhibitors of RecA-Intein Splicing Activity. [Related pubchem assays (depositor defined):AID2097, AID2223, AID489010, AID492950]; format: functional
# T2 sequence (P9WHJ3 whole entry): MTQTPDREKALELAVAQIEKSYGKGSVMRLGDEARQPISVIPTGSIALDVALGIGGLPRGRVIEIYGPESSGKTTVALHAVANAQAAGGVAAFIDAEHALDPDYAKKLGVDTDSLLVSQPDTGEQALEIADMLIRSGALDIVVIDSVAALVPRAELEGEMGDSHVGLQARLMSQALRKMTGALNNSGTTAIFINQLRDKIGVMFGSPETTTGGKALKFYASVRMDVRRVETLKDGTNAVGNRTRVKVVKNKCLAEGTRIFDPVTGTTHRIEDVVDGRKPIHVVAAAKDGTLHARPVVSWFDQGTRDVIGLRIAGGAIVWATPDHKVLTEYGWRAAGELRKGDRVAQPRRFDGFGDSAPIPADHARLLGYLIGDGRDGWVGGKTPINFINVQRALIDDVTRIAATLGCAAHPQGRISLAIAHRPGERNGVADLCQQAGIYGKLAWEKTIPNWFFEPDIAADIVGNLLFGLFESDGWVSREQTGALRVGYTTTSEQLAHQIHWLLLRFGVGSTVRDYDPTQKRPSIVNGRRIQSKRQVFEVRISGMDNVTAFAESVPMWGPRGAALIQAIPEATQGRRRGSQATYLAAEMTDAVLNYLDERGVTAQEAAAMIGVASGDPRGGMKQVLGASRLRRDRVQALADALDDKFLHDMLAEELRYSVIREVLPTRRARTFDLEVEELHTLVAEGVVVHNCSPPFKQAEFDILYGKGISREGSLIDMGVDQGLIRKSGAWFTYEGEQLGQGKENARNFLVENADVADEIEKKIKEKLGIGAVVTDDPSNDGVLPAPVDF
# [3] = molecular target: Acyl-homoserine lactone acylase PvdQ (Pseudomonas aeruginosa (strain LESB58), UniProt Q9I194); test: PvdQ acylase enzyme activity blockers – biochemical, fluorescence, plate reader and imaging, cherry-picks, dose response (AID 493231)
# [4] = molecular target: Dual specificity protein phosphatase 3 (Homo sapiens, UniProt P51452); test: inhibition constants for human DUSP3 – biochemical, colorimetric, SAR follow-up (AID 2004)
# [5] = molecular target: Cyclin-dependent kinase 5/CDK5 activator 1 (Homo sapiens, UniProt Q00535); test: blockade of human CDK5 activity – biochemical, cherry-picked samples, set 2, dose response (AID 504545)
# [6] = molecular target: SWI/SNF-related matrix-associated actin-dependent regulator of chromatin subfamily A member 2 (Homo sapiens, UniProt P51531); test: Luminescence-based cell-based high throughput dose response assay to identify activators of the function of SWI/SNF related, matrix associated, actin dependent regulator of chromatin, subfamily a, member 2 (SMARCA2, BRM).; format: functional
# [7] = Counterscreen for activators of the function of SWI/SNF related, matrix associated, actin dependent regulator of chromatin, subfamily a, member 2 (SMARCA2, BRM): Luminescence-based cell-based high throughput dose response assay to identify non-selective compounds using the VP16 reporter assay.; format: functional
# Cytochrome P450 2D6 = Cytochrome P450 2D6 (Homo sapiens, UniProt P10635); test: qHTS Assay for Inhibitors and Substrates of Cytochrome P450 2D6. [Related pubchem assays: 410 ]; format: ADME; conditions: read-out: Potency
# Cytochrome P450 3A4 = Cytochrome P450 3A4 (Homo sapiens, UniProt P08684); conditions: Potency;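 note: confirmatory qHTS run detecting inhibitors and substrates of CYP3A4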
# Cytochrome P450 2C9 = Cytochrome P450 2C9 (Homo sapiens, UniProt P11712); conditions: Potency
# [8] = molecular target: Lysosomal acid glucosylceramidase (Homo sapiens, UniProt P04062); test: Dose response cell-based high throughput screening assay to identify enhancers of beta-glucosidase activity. [Related pubchem assays: 784 ]; format: functional
# [9] = luciferase reporter signal suppression in cells – H4 neuroglioma cells, luminescence, dose response (AID 1990); format: functional, cell-based
# [10] = Luminescence Cell-Based Dose Response HTS to Identify Inhibitors of 5'UTR Stem-Loop Driven Prion Protein mRNA Translation in H4 Neuroglioblastoma Cells. [Related pubchem assays: 1827 (Project Summary), 1813 (Primary HTS)]; format: functional
# [11] = alpha-synuclein stem-loop luciferase translation blockers – H4 neuroglioma cells, luminescence, confirmation (AID 1988); format: functional, cell-based
# [12] = molecular target: Scavenger receptor class B member 1 (Mus musculus, UniProt Q61009); test: mouse SR-BI DiI-HDL uptake blockers – ldlA[mSR-BI] cells, fluorescence, cherry pick, dose response (AID 493194); format: functional, cell-based;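 note: cellular uptake of fluorescent DiI-labeled HDL measured as cell fluorescence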
# Vero = test: cells; format: functional, cell-based; conditions: Chlorocebus sabaeus
# Vasopressin V1a receptor = Vasopressin V1a receptor (Homo sapiens, UniProt P37288); test: Counterscreen for Oxytocin Receptor (OXTR) agonists: Fluorescence-based cell-based high throughput dose response assay to identify agonists of the vasopressin 1 receptor (V1R). [Related pubchem assays: 2435 (Primary screen (OXTR agonists in singlicate)), 434991 (Counterscreen (V1R agonists in triplicate)), 2482 (Summary (OXTR agonists)) …; format: functional
# Oxytocin receptor = Oxytocin receptor (Homo sapiens, UniProt P30559); test: Fluorescence-based cell-based high throughput dose response assay for agonists of the Oxytocin Receptor (OXTR). [Related pubchem assays: 2435 (Primary screen (OXTR agonists in singlicate)), 434991 (Counterscreen (V1R agonists in triplicate)), 2482 (Summary (OXTR agonists)), 434963 (Confirmation screen (OXTR agonists in triplicate))]; format: functional
# [13] = molecular target: T3, Corticotropin-releasing factor receptor 2/Corticotropin-releasing factor-binding protein (Homo sapiens, UniProt P24387+Q13324); test: activators of CRF receptor 2 with binding protein – uHTS hits, confirmation (AID 602473); format: functional; conditions: read-out: EC50_Mean
# T3 sequence (Q13324 whole entry): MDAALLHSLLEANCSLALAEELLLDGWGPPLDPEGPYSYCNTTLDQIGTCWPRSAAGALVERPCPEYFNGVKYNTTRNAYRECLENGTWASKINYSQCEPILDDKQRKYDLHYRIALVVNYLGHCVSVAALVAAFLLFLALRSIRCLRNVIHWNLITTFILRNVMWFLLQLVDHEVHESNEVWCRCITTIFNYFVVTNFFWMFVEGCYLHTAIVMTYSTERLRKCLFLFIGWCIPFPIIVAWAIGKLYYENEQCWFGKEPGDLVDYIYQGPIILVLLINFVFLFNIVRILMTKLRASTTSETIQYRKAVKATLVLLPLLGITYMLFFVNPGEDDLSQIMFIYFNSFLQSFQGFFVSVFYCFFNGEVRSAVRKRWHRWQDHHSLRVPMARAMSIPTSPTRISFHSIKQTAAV
# T3 sequence (P24387 whole entry): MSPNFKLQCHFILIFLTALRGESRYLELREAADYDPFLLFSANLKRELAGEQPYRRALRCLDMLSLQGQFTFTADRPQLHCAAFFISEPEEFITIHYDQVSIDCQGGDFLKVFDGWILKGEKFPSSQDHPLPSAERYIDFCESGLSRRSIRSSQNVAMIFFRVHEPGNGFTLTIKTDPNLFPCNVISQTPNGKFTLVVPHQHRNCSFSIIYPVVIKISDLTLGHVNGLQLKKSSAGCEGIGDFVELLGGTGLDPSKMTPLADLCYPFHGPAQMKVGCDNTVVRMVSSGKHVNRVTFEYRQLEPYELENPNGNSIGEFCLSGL
# Vibrio harveyi = test: Quorum Sensing, LuxS, LuxPQ Measured in Microorganism System Using Plate Reader - 2035-01_Inhibitor_DoseNoFile_DryPowder_Activity. [Related pubchem assays (depositor defined):AID2106]; format: functional, organism-based
# [14] = molecular target: T4, Voltage-gated N-type calcium channel alpha-1B subunit/Amyloid beta A4 precursor protein-binding family A member 1 (Homo sapiens, UniProt Q00975+Q02410); test: disruptors of Mint-PDZ/N-type channel peptide interaction – biochemical, HTRF, set 2, SAR follow-up (AID 434980); format: functional
# [15] = molecular target: T4, Voltage-gated N-type calcium channel alpha-1B subunit/Amyloid beta A4 precursor protein-binding family A member 1; test: disruptors of Mint-PDZ/N-type channel peptide interaction – biochemical, HTRF, SAR follow-up (AID 2489); format: functional
# Wee1-like protein kinase = Wee1-like protein kinase (Homo sapiens, UniProt P30291); test: HeLa cell cycle G2/M accumulation – FACS, mechanism study for Wee1 degradation inhibitor project, late-stage follow-up, panel member Wee1 Degradation (AID 2088)
# [16] = molecular target: G2/mitotic-specific cyclin-B1 (Homo sapiens, UniProt P14635); test: HeLa cell cycle G2/M accumulation – FACS, mechanism study for Wee1 degradation inhibitor project, late-stage follow-up, panel member Cyclin B Degradation (AID 2088)
# [17] = molecular target: Melanin-concentrating hormone receptor 1 (Homo sapiens, UniProt Q99705); test: Late-stage fluorescence-based counterscreen for antagonists of the G-protein coupled receptor 7 (GPR7): cell-based dose response assay to identify antagonists of the melanin-concentrating hormone receptor 1 (MCHR1). [Related pubchem assays (depositor defined):AID1861, AID1880, AID1952, AID2148, AID2251, AID2257, AID485339]; format: functional;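 note: stimulated with 30 nM MCH peptide agonist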
# T4 sequence (Q00975 whole entry): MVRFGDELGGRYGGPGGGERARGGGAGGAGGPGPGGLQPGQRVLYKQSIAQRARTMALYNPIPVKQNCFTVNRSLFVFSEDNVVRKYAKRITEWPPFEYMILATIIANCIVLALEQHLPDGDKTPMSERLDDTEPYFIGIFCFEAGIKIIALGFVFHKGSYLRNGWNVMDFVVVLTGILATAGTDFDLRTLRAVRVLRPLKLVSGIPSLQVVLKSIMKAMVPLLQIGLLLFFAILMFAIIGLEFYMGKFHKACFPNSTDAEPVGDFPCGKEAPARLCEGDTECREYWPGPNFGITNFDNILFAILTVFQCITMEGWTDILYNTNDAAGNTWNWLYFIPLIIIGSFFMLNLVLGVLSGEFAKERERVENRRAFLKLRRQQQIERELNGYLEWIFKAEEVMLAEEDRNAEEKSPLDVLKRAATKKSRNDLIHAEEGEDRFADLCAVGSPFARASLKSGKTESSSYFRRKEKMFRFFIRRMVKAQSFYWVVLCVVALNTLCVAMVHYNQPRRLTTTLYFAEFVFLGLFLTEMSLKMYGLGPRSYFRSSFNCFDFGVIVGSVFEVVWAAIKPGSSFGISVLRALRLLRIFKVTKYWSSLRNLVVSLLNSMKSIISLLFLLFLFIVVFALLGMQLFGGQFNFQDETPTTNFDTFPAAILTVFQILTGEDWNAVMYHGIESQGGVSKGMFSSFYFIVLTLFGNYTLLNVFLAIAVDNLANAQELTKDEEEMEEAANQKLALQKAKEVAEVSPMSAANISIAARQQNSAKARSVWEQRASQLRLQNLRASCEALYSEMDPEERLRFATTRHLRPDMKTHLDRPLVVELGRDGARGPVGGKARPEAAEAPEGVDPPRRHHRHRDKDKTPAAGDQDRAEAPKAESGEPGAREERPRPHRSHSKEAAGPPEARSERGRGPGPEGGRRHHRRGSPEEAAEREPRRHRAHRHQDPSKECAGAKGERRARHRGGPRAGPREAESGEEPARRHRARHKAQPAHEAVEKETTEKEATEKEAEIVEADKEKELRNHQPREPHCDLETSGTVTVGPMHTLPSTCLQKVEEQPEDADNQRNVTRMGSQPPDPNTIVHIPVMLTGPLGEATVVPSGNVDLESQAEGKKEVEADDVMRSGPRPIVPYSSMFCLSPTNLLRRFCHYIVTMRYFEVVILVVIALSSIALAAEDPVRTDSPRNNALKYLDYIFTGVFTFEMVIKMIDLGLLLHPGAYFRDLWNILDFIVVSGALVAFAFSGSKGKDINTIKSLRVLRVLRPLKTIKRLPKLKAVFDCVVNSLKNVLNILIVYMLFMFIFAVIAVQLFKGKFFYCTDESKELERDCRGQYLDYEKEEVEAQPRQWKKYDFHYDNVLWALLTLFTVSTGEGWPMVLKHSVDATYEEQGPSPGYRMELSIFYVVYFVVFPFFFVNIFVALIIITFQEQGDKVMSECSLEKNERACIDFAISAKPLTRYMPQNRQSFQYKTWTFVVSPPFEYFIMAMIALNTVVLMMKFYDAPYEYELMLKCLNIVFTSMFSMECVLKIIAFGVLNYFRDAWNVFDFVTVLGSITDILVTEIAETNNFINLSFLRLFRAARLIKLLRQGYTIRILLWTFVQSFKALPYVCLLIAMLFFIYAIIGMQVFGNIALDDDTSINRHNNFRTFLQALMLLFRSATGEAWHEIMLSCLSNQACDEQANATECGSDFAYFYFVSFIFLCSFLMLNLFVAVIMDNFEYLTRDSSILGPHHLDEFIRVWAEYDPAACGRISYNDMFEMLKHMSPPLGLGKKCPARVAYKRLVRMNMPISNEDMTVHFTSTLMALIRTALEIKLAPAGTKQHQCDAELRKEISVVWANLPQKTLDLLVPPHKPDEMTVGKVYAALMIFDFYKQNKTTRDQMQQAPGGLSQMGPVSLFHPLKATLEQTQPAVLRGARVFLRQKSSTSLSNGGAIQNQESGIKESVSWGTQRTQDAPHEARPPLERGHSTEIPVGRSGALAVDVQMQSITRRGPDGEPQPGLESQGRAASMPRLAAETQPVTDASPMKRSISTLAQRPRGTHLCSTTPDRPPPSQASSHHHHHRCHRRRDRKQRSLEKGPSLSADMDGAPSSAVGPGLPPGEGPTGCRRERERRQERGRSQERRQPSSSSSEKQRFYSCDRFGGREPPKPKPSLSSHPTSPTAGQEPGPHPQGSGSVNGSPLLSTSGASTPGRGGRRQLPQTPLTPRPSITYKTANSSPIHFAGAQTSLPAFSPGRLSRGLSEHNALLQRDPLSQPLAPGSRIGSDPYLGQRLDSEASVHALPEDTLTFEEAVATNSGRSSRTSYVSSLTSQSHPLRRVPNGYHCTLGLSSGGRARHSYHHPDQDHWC
# T4 sequence (Q02410 whole entry): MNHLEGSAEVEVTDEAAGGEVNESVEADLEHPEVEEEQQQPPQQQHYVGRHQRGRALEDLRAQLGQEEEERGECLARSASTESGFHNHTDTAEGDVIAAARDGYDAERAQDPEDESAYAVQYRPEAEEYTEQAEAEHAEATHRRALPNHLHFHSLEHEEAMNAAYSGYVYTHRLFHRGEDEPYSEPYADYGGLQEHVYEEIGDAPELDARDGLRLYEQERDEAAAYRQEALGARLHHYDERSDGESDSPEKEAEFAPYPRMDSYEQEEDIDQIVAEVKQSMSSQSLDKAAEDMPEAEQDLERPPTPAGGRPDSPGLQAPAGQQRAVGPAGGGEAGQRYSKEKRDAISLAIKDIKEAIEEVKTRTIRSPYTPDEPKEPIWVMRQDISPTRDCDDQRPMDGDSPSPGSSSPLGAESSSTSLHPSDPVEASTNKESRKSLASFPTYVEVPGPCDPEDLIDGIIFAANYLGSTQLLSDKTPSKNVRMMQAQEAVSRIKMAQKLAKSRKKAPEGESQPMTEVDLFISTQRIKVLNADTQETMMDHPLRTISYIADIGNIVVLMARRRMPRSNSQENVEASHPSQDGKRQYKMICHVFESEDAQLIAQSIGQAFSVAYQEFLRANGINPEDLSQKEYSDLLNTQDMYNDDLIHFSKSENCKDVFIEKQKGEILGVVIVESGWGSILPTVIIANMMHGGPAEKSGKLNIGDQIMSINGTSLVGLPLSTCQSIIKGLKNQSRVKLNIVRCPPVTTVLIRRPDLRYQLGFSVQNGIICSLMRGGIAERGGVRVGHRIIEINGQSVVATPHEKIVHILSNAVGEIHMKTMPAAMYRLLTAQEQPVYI
# SWI/SNF-related matrix-associated actin-dependent regulator of chromatin subfamily A member 2, sequence (P51531 whole entry): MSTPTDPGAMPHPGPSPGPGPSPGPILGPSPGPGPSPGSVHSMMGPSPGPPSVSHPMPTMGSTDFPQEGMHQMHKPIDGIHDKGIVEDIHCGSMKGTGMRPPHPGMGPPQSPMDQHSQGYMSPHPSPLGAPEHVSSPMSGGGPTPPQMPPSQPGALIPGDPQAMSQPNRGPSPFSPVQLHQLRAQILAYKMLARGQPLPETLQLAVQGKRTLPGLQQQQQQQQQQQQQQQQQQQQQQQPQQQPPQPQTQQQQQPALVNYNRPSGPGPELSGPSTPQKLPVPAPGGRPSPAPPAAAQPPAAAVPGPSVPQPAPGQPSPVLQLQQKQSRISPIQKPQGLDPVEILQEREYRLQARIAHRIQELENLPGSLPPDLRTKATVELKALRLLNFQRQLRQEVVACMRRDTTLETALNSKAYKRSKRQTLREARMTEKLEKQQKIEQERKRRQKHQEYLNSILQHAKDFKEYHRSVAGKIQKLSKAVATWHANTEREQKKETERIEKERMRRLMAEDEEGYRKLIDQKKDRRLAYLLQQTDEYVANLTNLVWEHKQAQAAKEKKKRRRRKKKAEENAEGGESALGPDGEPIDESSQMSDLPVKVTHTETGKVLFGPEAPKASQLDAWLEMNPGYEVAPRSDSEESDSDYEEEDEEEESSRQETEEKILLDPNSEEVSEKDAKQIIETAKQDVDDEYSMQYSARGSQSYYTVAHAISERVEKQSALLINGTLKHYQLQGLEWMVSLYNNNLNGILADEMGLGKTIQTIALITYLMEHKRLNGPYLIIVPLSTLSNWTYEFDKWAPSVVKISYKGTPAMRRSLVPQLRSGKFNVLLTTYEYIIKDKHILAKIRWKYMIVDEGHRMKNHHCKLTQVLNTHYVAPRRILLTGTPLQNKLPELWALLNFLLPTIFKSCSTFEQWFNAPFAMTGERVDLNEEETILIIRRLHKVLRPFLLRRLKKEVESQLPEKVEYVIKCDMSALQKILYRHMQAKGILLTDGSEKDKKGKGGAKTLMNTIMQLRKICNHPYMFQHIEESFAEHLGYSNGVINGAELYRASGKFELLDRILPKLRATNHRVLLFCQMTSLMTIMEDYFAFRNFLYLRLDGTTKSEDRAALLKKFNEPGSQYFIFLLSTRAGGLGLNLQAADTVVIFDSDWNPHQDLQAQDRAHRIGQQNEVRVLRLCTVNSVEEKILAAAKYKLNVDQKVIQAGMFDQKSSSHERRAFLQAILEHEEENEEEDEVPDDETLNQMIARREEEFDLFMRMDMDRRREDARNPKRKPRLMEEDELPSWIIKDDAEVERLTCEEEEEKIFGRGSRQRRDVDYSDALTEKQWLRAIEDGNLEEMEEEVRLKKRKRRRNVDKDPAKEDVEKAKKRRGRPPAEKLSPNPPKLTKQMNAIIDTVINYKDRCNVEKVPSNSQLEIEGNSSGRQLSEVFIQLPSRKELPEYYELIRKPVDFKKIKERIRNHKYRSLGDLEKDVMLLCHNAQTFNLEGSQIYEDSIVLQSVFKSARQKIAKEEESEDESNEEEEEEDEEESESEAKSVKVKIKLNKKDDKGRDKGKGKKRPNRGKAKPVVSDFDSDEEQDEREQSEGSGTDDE
# Dual specificity protein phosphatase 3, sequence (P51452 whole entry): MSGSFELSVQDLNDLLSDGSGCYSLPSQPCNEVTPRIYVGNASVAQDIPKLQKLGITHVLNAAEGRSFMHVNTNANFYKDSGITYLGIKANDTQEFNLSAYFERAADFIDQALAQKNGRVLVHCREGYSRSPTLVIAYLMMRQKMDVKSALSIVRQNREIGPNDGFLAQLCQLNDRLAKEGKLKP
structure (smiles),measurement,setting,value
Cc1cc(C)n(-c2nc(N(c3ccccc3)c3ccccc3)nc(-n3nc(C)cc3C)n2)n1,EC50,[1],6.21 µM (active)
O=c1c2ccccc2nc(/C=C/c2cccnc2)n1CCc1ccccc1,IC50,Hexokinase HKDC1,17.5 µM (active)
same,AC50,[2],60.6 µM (active)
same,EC50,Protein RecA,12 µM (active)
CCOC(=O)CC(C#N)c1cn(C)c2ccccc12 (configuration not stated),AC50,[3],7.18 µM (active)
COC(=O)c1ccc(COc2cc3oc(=O)cc(-c4ccccc4)c3cc2Cl)cc1,Ki,[4],28.9 µM (inactive)
CC(C)[C@H](CO)Nc1nc(NCc2ccc(S(N)(=O)=O)cc2)c2ncn(C(C)C)c2n1,AC50,[5],1.93 µM (active)
same,EC50,[6],> 91.2 µM (inactive)
same,EC50,[7],> 91.2 µM (inactive)
CCCCCCCC1=Cc2ccccc2C(CC(C)=O)N1C(=O)OC (configuration not stated),AC50,Cytochrome P450 2D6,3.98 µM (inconclusive)
same,AC50,Cytochrome P450 3A4,3.16 µM (inconclusive)
same,AC50,Cytochrome P450 2C9,6.31 µM (inconclusive)
Cc1cc(-c2nnc(SCc3cccnc3)o2)no1,EC50,[8],> 50 µM (not active)
Cc1cc(SC(C)C(=O)Nc2ncc(Cl)cc2Cl)nc2ccccc12 (configuration not stated),EC50,[9],> 120 µM (not active)
same,EC50,[10],> 120 µM (not active)
same,EC50,[11],15.1 µM (active)
same,AC50,[12],0.633 µM (active)
same,IC50,Vero,19.5 µM (active)
CC(=O)c1c(C)[nH]c(C(=O)CN2C(=O)NC(C)(c3ccc(C)cc3)C2=O)c1C (configuration not stated),EC50,Vasopressin V1a receptor,> 29.9 µM (not active)
same,EC50,Oxytocin receptor,> 29.9 µM (not active)
same,EC50,[13],11.6 µM (active)
CN(C)S(=O)(=O)c1ccc(NC(=S)NC(=O)Cc2ccccc2)cc1,AC50,Vibrio harveyi,66.4 µM (active)
COc1ccccc1CNC(=O)COC(=O)c1cccc2ccccc12,IC50,[14],19.4 µM (active)
same,IC50,[15],> 56.8 µM (inactive)
Cc1cc(NC(=O)c2cccc(F)c2)n(-c2nc(=O)cc(C)[nH]2)n1,EC50,Wee1-like protein kinase,> 49.7 µM (inactive)
same,EC50,[16],> 49.7 µM (inactive)
CCc1ccc(-n2ncc(Cl)c(Oc3ccc(OC)cc3)c2=O)cc1,IC50,[17],3.9 µM (active)

# Reference: ChEMBL document CHEMBL1201862, “PubChem BioAssay data set” (2004)
